According to US9115176B2, “Compounds, use thereof in cosmetic and cosmeceutic applications, and compositions comprising same” (Lucas Meyer Cosmetics Canada Inc., priority 2007, dated 2015):
* marks the point of attachment. Hexanoyl = CCCCCC(=O)*

Tests used:
[1] = test system: Normal human dermal fibroblasts; experiment: Neosynthesis of laminin in normal human dermal fibroblasts (E.I.A. kit, normalised to Bradford protein); format: cell-based; conditions: for Laminins (ng/μg proteins) % increase: 48 hours incubation, untreated control = 100.0%
Procedure: Normal human dermal fibroblasts were incubated for 48 hours in absence or presence of Transforming Growth Factor (TGF)-β at 50 ng/ml or of peptide I at two concentrations, namely 10^−6M and 10^−7M. At the end of the incubation period, laminins were quantified with the E.I.A. Enzyme Immuno Assay kit. Proteins contained in the cell lysate were also quantified by spectrocolorimetry according to the Bradford method. TGF-β and peptide I were tested in dose-response on the fibroblasts.
The data presented in Table I below represent the relative increase in laminin synthesis in a human dermal fibroblast culture medium in monolayers in the presence of peptide I, or TGF-β, as compared to untreated cells (control).

collagen VII = experiment: Synthesis of collagen VII in human skin fragments treated with dermal corticosteroid (immunohistochemistry, semi-quantitative score); format: cell-based
Procedure: (§1) Fragments of normal human skin were treated or not in the presence of a dermal corticosteroid at 0.05% w/v and peptide I at a concentration of 10^−7M. Dermal corticosteroid are known to alter cell metabolism. The skin samples were then frozen at day 3 for an immunohistochemical analysis of collagen VII. The immunodetection was performed with a 3 coats indirect immunoperoxidase method (ABC Peroxidase kit, Vector laboratories) using a primary antibody specific to collagen VII.

laminin-5 = experiment: Synthesis of laminin-5 in human skin fragments treated with dermal corticosteroid (immunohistochemistry, semi-quantitative score); format: cell-based
Procedure: as §1, with “or” for “and”, “10^−7M.” for “10^−7M. Dermal corticosteroid are known to alter cell metabolism.”, “laminin-5.” for “collagen VII.”, “(BC” for “(ABC”

crow's feet = experiment: In vivo anti-wrinkle activity on crow's feet (photographs, silicone replicas, fringe projection); parameters: species or system human; conditions: 5 ppm in Table VI formulation, topical twice daily, after 28 and 56 days, versus placebo
Procedure: Peptide I was tested in the formulation described in Table VI below versus its placebo on 30 subjects (+10%) selected according to the inclusion/non inclusion criteria. [table] The study lasted 56 days following the first application. Volunteers applied the product twice daily on a randomised crow's foot of the temple. The study was a simple blind test, comparing the results obtained at one treated area following application of the composition comprising peptide I with those obtained at another treated area with the placebo. The evaluation of the efficacy of the formulation comprising peptide I was performed using: (a) illustrative digital photographs of the crow's feet; and (b) Silicone rubber replicas of the crow's feet (analysis of the wrinkles and of the skin network by fringe projection). In vitro fringe projection—Topometry—Wrinkles. […] All the silicone rubber replicas were analysed by fringe projection to observe the cutaneous relief. The following parameters were measured: (a) SPa: Average roughness; (b) SPq: Average dispersal of the variations of the relief; (c) SPt: Maximum amplitude of the relief and (d) SDev: Developed Surface. […] All the replicas were analysed by fringe projection to observe the skin network analysis. The following parameters were measured: (a) SRa: Average roughness (mm); and (b) SRq: Average with regards to the average quadratic (mm).

[2] = skin + corticosteroids 0.05% w/v + peptide I 10^−7M, day 3

Row | Substance | Laminins (ng/μg proteins) % increase ([1]; 10^−6M) | Laminins (ng/μg proteins) % increase ([1]; 10^−7M) | Effect on laminin synthesis in human dermal fibroblast cells (in words) ([1]; summary of Table I) | Collagen VII score, relative change (collagen VII; [2]) | Collagen VII labelling score (collagen VII; skin + corticosteroids 0.05% w/v + peptide I 10^−7M, day 3, control skin 1.9 ± 0.8) | Effect on synthesis of collagen VII in a human skin model (in words) (collagen VII; summary of Table III) | Laminin-5 score, relative change (laminin-5; [2]) | Laminin-5 labelling score (laminin-5; skin + corticosteroids 0.05% w/v + peptide I 10^−7M, day 3, control skin 2.1 ± 1.3) | Effect on synthesis of laminin-5 in a human skin model (in words) (laminin-5; summary of Table V) | Crow's feet skin network roughness (in words) (crow's feet) | Reduction of the wrinkles (crow's feet roughness, in words) (crow's feet) | Laminins (ng/μg proteins) % increase ([1]; 50 ng/ml)
1 | CH3—(CH2)4—CO-Lys-Gly-His-Lys-NH2 (Hexanoyl-KGHK-NH2; SMILES CCCCCC(=O)N[C@@H](CCCCN)C(=O)NCC(=O)N[C@@H](Cc1c[nH]cn1)C(=O)N[C@@H](CCCCN)C(N)=O) [Peptide I] | 125.8% | 125.9% | increases laminin synthesis | +34% | 2.25 ± 0.2 | increases the synthesis of collagen VII | +49% | 2.2 ± 0.8 | increases the synthesis of laminin-5 | reduction of the crow's feet skin network roughness | potent efficacy | 
2 | TGF-β [reference compound] |  |  |  |  |  |  |  |  |  |  |  | 109.9%
